From patent publication US5481043A, “Phenone compounds, manufacturing method and pharmaceutical preparations containing them” (priority 1991, dated 1996)

Legend:
[1] = tested on: PAF-induced bronchial asthma; assay: Asthma-protective action in guinea pigs: PAF-induced bronchial asthma (inhalation, dual-chamber body plethysmograph); assay type: in vivo, guinea pig; conditions: for effects on PAF-induced and allergic reactions compared with androsin (in words): PAF-induced and allergic (ovalbumin) reactions
Procedure: (§1) b) Asthma-protective action of the acetophenone compound in guinea pigs.
(§2) Male white "Pirbright" guinea pigs were sensitized to ovalbumin by means of the well-known methods. Inhalation experiments were conducted 4 to 6 weeks later.
(§3) Spontaneously breathing animals were placed in a dual-chamber body plethysmograph in which the two chambers were separated around the head of the animals by a rubber collar filled with water. Changes in volume in the two chambers were measured by means of pressure transfer systems. The degree of bronchial obstruction was determined by means of the parameter, "compressed air". This technique is ten times more sensitive than other invasive methods (Dorsch et al., Pflugers Arch., 1981, 391: 236 to 241).
(§4) Groups of 10 to 14 animals were divided into two sub-groups and either treated with the test substance or with a solution. Three or four days later the experiments were repeated with those animals which had previously been given the control being given the test substance and vice-versa (each animal was once given either the test substance or the solvent).
Ovalbumin, histamine and acetylcholine were dissolved in saline solution; PAF was first dissolved in ethanol and then in saline solution containing 0.25% of bovine serum albumin to a final concentration of 1 μg PAF per ml. Ovalbumin, PAF, histamine and acetylcholine were administered in the form of an aerosol produced by ultrasound.
The effect of the test substance on the PAF-induced hyperreactivity was studied by means of successive inhalation of histamine, PAF and histamine. One group of animals was divided into two sub-groups with both sub-groups inhaling histamine in a dose leading to moderate bronchial obstruction. One hour later, one group was given the substance to be tested and the other group was given the solvent alone. Both groups were induced later by the successive inhalation of PAF and histamine. First 1 μg of PAF and 60 minutes later the same dose of histamine as before was given. The second contact with histamine in control animals usually leads to asthmatic reactions which are three times as great as after the first contact, […]

[2] = tested on: human peripheral leukocytes; assay: Inhibition of histamine release from human peripheral leukocytes; assay type: cell-based; conditions: for inhibition at 0.1 µg/mL / inhibition at 1 µg/mL / inhibition at 10 µg/mL / inhibition at 100 µg/mL: Homo sapiens, Leukocyte; for inhibition at 0.1 µg/mL: 0.0001 mg/ml; for inhibition at 1 µg/mL: 0.001 mg/ml; for inhibition at 10 µg/mL: 0.01 mg/ml; for inhibition at 100 µg/mL: 0.1 mg/ml
Procedure: Venous blood was withdrawn from atopic donors and the peripheral leukocytes were obtained by means of dextran sedimentation. The purified cells were preincubated with three or four different concentrations of the substance to be tested and with the solvent alone. After 10 minutes, rabbit antihuman IgE antibodies, plasma containing anaphylatoxin (C5a) according to Vallota and Muller-Eberhard, calcium ionophore or saline solution were added to the cells. 30 minutes later, the reaction was stopped and the histamine concentration was measured in the […] by means of spectrofluorometry.
The results are shown in table 1 with the inhibition of the histamine release shown in percent of the maximal release by perchloric acid, corrected by the spontaneous release without stimulation.

[3] = tested on: allergic bronchial asthma (ovalbumin inhalation); assay: Asthma-protective action in guinea pigs: allergic (ovalbumin-induced) bronchial asthma (inhalation, dual-chamber body plethysmograph); assay type: in vivo, guinea pig
Procedure: as §1, §2, §3, §4
Ovalbumin, histamine and acetylcholine were dissolved in saline solution; PAF was first dissolved in ethanol and then in saline solution containing 0.25% of bovine serum albumin to a final concentration of 1 μg PAF per ml. […]

[4] = oral dose of 10 mg/kg body weight
[5] = A 12387 (calcium ionophore) stimulus

SMILES	effects on PAF-induced and allergic reactions compared with androsin (in words) [1]	reduction of PAF-induced reactions ([1]; aerosol, 0.5 mg/animal) [%]	reduction of PAF-induced bronchial asthma in vivo [1, 4] [%]	inhibition at 0.1 µg/mL [2, 5] [%]	inhibition at 1 µg/mL [2, 5] [%]	inhibition at 10 µg/mL [2, 5] [%]	inhibition at 100 µg/mL [2, 5] [%]	inhibition at 0.1 µg/mL ([2]; C5a stimulus) [%]	inhibition at 1 µg/mL ([2]; C5a stimulus) [%]	inhibition at 10 µg/mL ([2]; C5a stimulus) [%]	inhibition at 100 µg/mL ([2]; C5a stimulus) [%]	inhibition at 0.1 µg/mL ([2]; α-IgE stimulus) [%]	inhibition at 1 µg/mL ([2]; α-IgE stimulus) [%]	inhibition at 10 µg/mL ([2]; α-IgE stimulus) [%]	inhibition at 100 µg/mL ([2]; α-IgE stimulus) [%]	inhibition of histamine release in vitro (in words) ([2]; in vitro experiment of table 1)	reduction of allergic reactions ([3]; aerosol, 0.5 mg/animal) [%]	reduction of allergic bronchial asthma in vivo [3, 4] [%]
COc1ccc(C(=O)CO)c(OC)c1 [2,4-dimethoxy-2-hydroxyacetophenone]	Essentially, the same effects are achieved																	
COc1cc(C(C)=O)ccc1O[C@@H]1O[C@H](CO)[C@@H](O)[C@H](O)[C@H]1O [Androsin, androsin]		72	72	-3.6	-0.4	-14.9	-12.5	-5.4	-4.5	3.7	-4.3	2.8	0.5	5.5	10.9	not effective	67	67
COc1cc(C(C)=O)ccc1O [apocynin]	Essentially, the same effects are achieved																	
